Molecular target: recombinant soluble dimeric mouse H-2D^b:Ig (DimerX) protein (Mus musculus, UniProt P01899)
Experiment: biochemical
Type: binding

recombinant soluble dimeric mouse H-2D^b:Ig (DimerX) protein, sequence (P01899 25-298 limits assumed): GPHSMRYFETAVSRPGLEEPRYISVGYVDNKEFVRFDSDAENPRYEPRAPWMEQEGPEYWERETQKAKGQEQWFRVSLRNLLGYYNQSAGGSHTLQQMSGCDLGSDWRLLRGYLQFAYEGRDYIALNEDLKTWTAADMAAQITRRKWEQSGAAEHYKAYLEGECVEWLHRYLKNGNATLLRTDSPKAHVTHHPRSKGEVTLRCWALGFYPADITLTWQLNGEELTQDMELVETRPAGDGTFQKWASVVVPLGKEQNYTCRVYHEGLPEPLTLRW

CC[C@H](C)[C@H](NC(=O)CNC(=O)[C@@H](NC(=O)[C@H](Cc1ccccc1)NC(=O)[C@H](CCCCN)NC(=O)[C@H](CO)NC(=O)[C@H](CC(N)=O)NC(=O)[C@H](C)NC(=O)[C@H](CCCCN)NC(=O)[C@@H](NC(=O)[C@H](Cc1ccc(O)cc1)NC(=O)[C@@H](N)CCC(N)=O)[C@@H](C)CC)[C@@H](C)CC)C(=O)N[C@H](C(=O)N[C@@H](CCC(=O)O)C(=O)O)[C@@H](C)O [TT830-843]
Kd: 344 ± 60 nM
kon (pH 7.2, read-out: association rate constant ka): 900000 M⁻¹ s⁻¹
koff (pH 7.2, read-out: dissociation rate constant kd): 0.31 ± 0.02 s⁻¹

Reference: article PMC8275407 (BioMed Research International, 2021)
